The source of these data is patent US6096874A (Board of Regents, the University of Texas System, priority 1995, dated 2000).

Entries after “also recorded” stand apart in the source; their conditions may differ. Like-named read-outs stand apart in the source and are kept apart here.

Data set [1] is described as follows: In vivo tissue uptake in rat (% injected dose per organ, n=5).
Data set [2] addresses T1, estrogen receptor (Sus scrofa, UniProt Q29040).
T1 sequence (Q29040 1-595): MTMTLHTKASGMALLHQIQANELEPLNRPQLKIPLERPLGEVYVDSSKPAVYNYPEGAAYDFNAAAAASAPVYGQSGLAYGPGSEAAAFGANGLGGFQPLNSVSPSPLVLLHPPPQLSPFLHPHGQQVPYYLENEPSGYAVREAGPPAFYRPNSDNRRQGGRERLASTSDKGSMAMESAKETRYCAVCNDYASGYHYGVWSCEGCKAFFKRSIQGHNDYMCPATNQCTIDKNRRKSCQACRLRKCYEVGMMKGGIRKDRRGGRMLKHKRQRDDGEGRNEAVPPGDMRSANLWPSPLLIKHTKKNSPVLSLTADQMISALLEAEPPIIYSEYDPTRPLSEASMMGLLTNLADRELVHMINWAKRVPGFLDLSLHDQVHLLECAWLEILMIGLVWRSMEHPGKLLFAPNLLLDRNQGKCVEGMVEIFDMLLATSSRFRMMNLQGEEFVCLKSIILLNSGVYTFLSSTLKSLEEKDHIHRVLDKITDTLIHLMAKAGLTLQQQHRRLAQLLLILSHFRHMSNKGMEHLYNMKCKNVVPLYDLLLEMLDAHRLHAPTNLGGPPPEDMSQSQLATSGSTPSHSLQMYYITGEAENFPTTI
Protocol: (§1) A previously reported procedure was modified by the inventors and used for this purpose.^10,11 TEA buffer was used by the Inventors for tissue preparation.
(§2) Briefly, uteri (90 gm) were obtained from immature domestic swine (15 kg) was homogenized in Tris buffer (10 mM, pH 7.4) (1 uterus/180 ml), which contained EDTA (1.5 mM) and sodium Azide (3 mM). The homogenate was centrifuged at 100,000 g for 1 hour at 4° C. Uteri cytosol (contains 2% of protein from corresponding uterus tissue) were then pretreated with dextran-coated charcoal as described.^10 Protein concentrations were determined according to the method of Lowry et al.^12
(§3) *The relative binding affinity (RBA) for the pig uteri estrogen receptor

In data set [3] the target is T1, estrogen receptor. Description: biochemical.
Protocol: as §1, §2, §3
Data set [4] in a line: Acute/immediate toxicity following i.v. injection in BALB/c mice. The conditions noted are these: mouse, in vivo, iv. On the procedure:
Acute toxicity studies were performed in BALB/c female mice with doses tested at 20, 50 and 200 mg/kg (i.v., n=5 mice per dose).

The test system of data set [5] is MCF-7 human breast cancer cells. Description: MCF-7 human breast cancer xenograft growth in nude mice. Format: in vivo, mouse. The settings on record: 50 μg daily s.c. The source says:
The cultures were free of mycoplasma and pathogenic murine viruses (assayed by Microbiological Associates, Bethesda, Md.). Female athymic NCr-nu/nu mice were obtained from the NCI-Frederick Cancer Research Facility (Frederick, Md.). The mice were maintained in specific-pathogen-free conditions in a facility approved by the American Association for Accreditation of Laboratory Animal Care. […] A 60-day release pellet containing […] 17-β estradiol (Innovative Research of America, Toledo, Ohio) was implanted s.c. in each animal. After 20 days the 17β estradiol […] removed from one group, and these mice were not treated further.
(In general: Xenograft models place foreign cells or tissue in a host animal.)

Data set [6] has as its system breast cancer. As to the kind of experiment: Response of PET-imaged patients to tamoxifen treatment. Format: in vivo, human.
In data set [7] the test system is breast cancer. The settings on record: unselected patients with breast cancer; cited from earlier work.

With `CCN(CC)CCOc1ccc(/C(=C(/CCC[131I])c2ccccc2)c2ccccc2)cc1` [^131 I-IMTX (trans)], the values for the Uterus/muscle ratio in data set [1] (first value (3 h)), in data set [1] (second value (6 h)) and in data set [1] (third value (24 h)) were 11.0, 7.6 and 3.6, respectively.

For `CCN(CC)CCOc1ccc(/C(=C(/CCCN=[N+]=[N-])c2ccccc2)c2ccccc2)cc1` [TX-N3 (trans), Tamoxifen Azide], the “RBA (relative binding affinity)” value on estrogen receptor [2] was determined as 80. In addition, at estrogen receptor [3], the IC50 (usually the concentration that inhibits the measured activity by half) amounted to 38 µM and the Ki (as a rule, a measure of affinity in units of concentration, obtained from inhibition or displacement) came out at 18.7 µM.

As to `CCN(CC)CCOc1ccc(C(=C(CCCI)c2ccccc2)c2ccccc2)cc1` [iodotamoxifen], the MTD in data set [4] was 50 mg/kg. Moreover, the “ER(+) MCF-7 tumor growth (in words)” value in data set [5] is “reduced ER(+) breast tumor growth; also recorded: growth of the MCF-7 tumors was greatly reduced”.

Consider `CC/C(=C(\c1ccccc1)c1ccc(OCCN(C)C)cc1)c1ccccc1` [Compound I, Tamoxifen], for which the “ER(+) MCF-7 tumor growth (in words)” value in data set [5] was “reduced ER(+) breast tumor growth; also recorded: growth of the MCF-7 tumors was greatly reduced”. Besides, the “Response of TX treat.” value in the data set on breast cancer [6] (patient 1) is “poor”; with breast cancer [6] (patient 2), “poor”; in the data set on breast cancer [6] (patient 3), “good”; with breast cancer [6] (patient 4) it was “poor”; in the data set on breast cancer [6] (patient 5), “good”; with breast cancer [6] (patient 7) it was “poor”. In addition, the “Response of TX treat.” value was “poor” in the data set on breast cancer [6] (patient 9) and “good” in the data set with breast cancer [6] (patient 10). The “Response to tamoxifen therapy (in words)” value in the data set with breast cancer [6] (three patients with tumor uptake) is “positive response to tamoxifen therapy”. In addition, the Positive therapy results in the data set on breast cancer [7] is recorded as 30%.

Turning to `CCN(CC)CCOc1ccc(/C(=C(/CCCN)c2ccccc2)c2ccccc2)cc1` [TX-NH2 (trans), Amino Tamoxifen], the “RBA (relative binding affinity)” value on estrogen receptor [2] (tamoxifen = 100) was determined as 10. On estrogen receptor [3], this molecule registered an IC50 of 300 µM and a Ki of 150 µM.
